For experiment [1], the system named is GH release. Kind of experiment: In vivo endocrine activity, GH release after subcutaneous administration (Table 9). The settings on record: rat, subcutaneous (s.c.) injection. On the procedure: Subcutaneous Administration. Adult male rats were used and anesthetized with pentobarbital (6 mg/100 g, b.w.), by i.p. injection. […] Blood samples were taken from the jugular vein 5, 15 and/or 30 minutes after the injection. The blood samples were centrifuged, plasma was removed and the GH level was measured byELISA. The results are summarized in terms of potency in Table 9.

Experiment [2] concerns the target T1, GHRH receptor (Homo sapiens, UniProt Q02643).
T1 sequence (Q02643 23-423): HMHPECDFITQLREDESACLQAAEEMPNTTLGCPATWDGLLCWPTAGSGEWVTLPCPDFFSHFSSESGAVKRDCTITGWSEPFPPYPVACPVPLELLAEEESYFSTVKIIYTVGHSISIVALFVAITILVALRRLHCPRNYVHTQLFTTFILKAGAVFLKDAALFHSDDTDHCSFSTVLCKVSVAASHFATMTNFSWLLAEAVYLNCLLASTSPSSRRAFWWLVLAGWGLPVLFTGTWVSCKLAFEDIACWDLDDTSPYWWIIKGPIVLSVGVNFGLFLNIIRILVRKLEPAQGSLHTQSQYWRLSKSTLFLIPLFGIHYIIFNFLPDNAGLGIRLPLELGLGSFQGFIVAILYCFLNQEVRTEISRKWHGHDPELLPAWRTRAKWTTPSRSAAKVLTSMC
The experiment can be described thus: GHRH receptor binding, competition with 125I-labeled JV-1-42, human pituitary membrane homogenates (Table 7). Also noted: Normal human pituitaries were purchased from the National Hormone and Peptide Program; tissue National Hormone and Peptide Program (A.F. Parlow, Harbor-UCLA Medical Center, Torrance, Calif.); host or cells: normal human pituitary, membrane fraction. The following applies: for Relative affinity (Binding potency) vs JI-38: JI-38 = 1, Table 7. An excerpt:
Normal human pituitaries were purchased from the National Hormone and Peptide Program (A.F. Parlow, Los Angeles, County Harbor-UCLA Medical Center, Torrance, Calif.).

pIC50: −log10 of the molar value. Non-standard residues stand in square brackets, D forms with d. Residues, ends and D or L forms follow the SMILES beside them. *: point of attachment. Phe(F5) = N[C@@H](Cc1c(F)c(F)c(F)c(F)c1F)C(=O)O; Desaminotyrosyl = O=C(CCc1ccc(O)cc1)*; NMeY = CN[C@@H](Cc1ccc(O)cc1)C(=O)O; Agmatine = N=C(N)NCCCCN*; NMeA = CN[C@@H](C)C(=O)O; Nle = CCCC[C@H](N)C(=O)O; Orn = NCCC[C@H](N)C(=O)O; Abu = CC[C@H](N)C(=O)O; GABA = NCCCC(=O)O

Take “[N—Me-D-Tyr^1, D-Ala^2, Gln^8, Orn^12, Abu^15, Orn^21, Nle^27, Asp^28]hGHRH(1-29)NH—CH3 [Peptide P-27425]”: the “GH releasing potency relative to JI-38 (=1)” value is 0.49 in experiment [1] (15 min after) and 0.31 in experiment [1] (30 min after).

`CCCC[C@H](NC(=O)[C@@H](NC(=O)[C@H](CC(=O)O)NC(=O)[C@H](CCC(N)=O)NC(=O)[C@H](CC(C)C)NC(=O)[C@H](CC(C)C)NC(=O)[C@H](CCCN)NC(=O)[C@H](CCCNC(=N)N)NC(=O)[C@H](C)NC(=O)[C@H](CO)NC(=O)[C@H](CC(C)C)NC(=O)[C@H](CCC(N)=O)NC(=O)[C@H](CC)NC(=O)[C@H](CC(C)C)NC(=O)[C@@H](NC(=O)[C@H](CCCN)NC(=O)[C@H](CCCNC(=N)N)NC(=O)[C@H](Cc1ccc(O)cc1)NC(=O)[C@H](CO)NC(=O)[C@H](CC(N)=O)NC(=O)[C@@H](NC(=O)[C@H](Cc1ccccc1)NC(=O)[C@@H](NC(=O)[C@H](C)NC(=O)[C@H](CC(=O)O)NC(=O)[C@@H](C)NC(=O)CCc1ccc(O)cc1)[C@@H](C)CC)[C@@H](C)O)C(C)C)[C@@H](C)CC)C(=O)N[C@@H](CC(=O)O)C(=O)N[C@@H](CCCNC(=N)N)C(=O)NC` [Peptide P-27400, [Dat^1, D-Ala^2, Orn^12, Abu^15, Orn^21, Nle^27, Asp^28]hGHRH(1-29)NH—CH3] (Desaminotyrosyl-[dA]DAIFTNSYR[Orn]VL[Abu]QLSAR[Orn]LLQDI[Nle]DR-NHMe): the “GH releasing potency relative to JI-38 (=1)” value turned out to be 0.47 in experiment [1] (15 min after) and 0.38 in experiment [1] (30 min after). Further, in experiment [2], the “Relative affinity (Binding potency) vs JI-38” value (“Relative affinity” for short) was found to be 1.30.

“[N—Me-Tyr^1, D-Ala^2, Thr^8, Orn^12, Abu^15, Orn^21, Nle^27, Asp^28, Agm^29] hGHRH (1-29)NH2 [Peptide P-20360]”: the results for the “GH releasing potency relative to JI-38 (=1)” value in experiment [1] (15 min after) and in experiment [1] (30 min after) were 0.24 and 0.39, respectively.

For `CCCC[C@H](NC(=O)[C@@H](NC(=O)[C@H](CC(=O)O)NC(=O)[C@H](CCC(N)=O)NC(=O)[C@H](CC(C)C)NC(=O)[C@H](CC(C)C)NC(=O)[C@H](CCCN)NC(=O)[C@H](CCCNC(=N)N)NC(=O)[C@H](C)NC(=O)[C@H](CO)NC(=O)[C@H](CC(C)C)NC(=O)[C@H](CCC(N)=O)NC(=O)[C@H](CC)NC(=O)[C@H](CC(C)C)NC(=O)[C@@H](NC(=O)[C@H](CCCN)NC(=O)[C@H](CCCNC(=N)N)NC(=O)[C@H](Cc1ccc(O)cc1)NC(=O)[C@H](CO)NC(=O)[C@H](CC(N)=O)NC(=O)[C@@H](NC(=O)[C@H](Cc1c(F)c(F)c(F)c(F)c1F)NC(=O)[C@@H](NC(=O)[C@H](C)NC(=O)[C@H](CC(=O)O)NC(=O)[C@@H](C)NC(=O)[C@H](Cc1ccc(O)cc1)NC)[C@@H](C)CC)[C@@H](C)O)C(C)C)[C@@H](C)CC)C(=O)N[C@@H](CO)C(=O)N[C@@H](CCCNC(=N)N)C(=O)NCCCC(=O)NC` [Peptide P-27414, [N—Me-Tyr^1, D-Ala^2, Fpa5^6, Orn^12, Abu^15, Orn^21, Nle^27, Gab^30]hGHRH(1-30)NH—CH3] (H-[NMeY][dA]DAI[Phe(F5)]TNSYR[Orn]VL[Abu]QLSAR[Orn]LLQDI[Nle]SR[GABA]-NHMe), the “GH releasing potency relative to JI-38 (=1)” value in experiment [1] (15 min after) turned out to be 1.30; in experiment [1] (30 min after), 1.23. The “Relative affinity” value in experiment [2] is recorded as 2.79.

In the case of “[N—Me-Tyr^1, D-Ala^2, Gln^8, Orn^12, Abu^15, Orn^21, Nle^27, Asp^28, Gln-Gab^30] hGHRH](1-30)NH2 [Peptide P-29701]”, the results for the “GH releasing potency relative to JI-38 (=1)” value in experiment [1] (5 min after), in experiment [1] (15 min after) and in experiment [1] (30 min after) were 0.92, 1.30 and 1.55, respectively.

With “[N—Me-Tyr^1, D-Ala^2, Ala^8, Orn^12, Abu^15, Orn^21, Nle^27, Asp^28]hGHRH (1-29)NH—CH3 [Peptide P-27412]”, the figures for the “GH releasing potency relative to JI-38 (=1)” value in experiment [1] (15 min after) and in experiment [1] (30 min after) were 1.10 and 1.29, respectively.

“[N—Me-Tyr^1, Gln^8, Orn^12, Abu^15, Orn^21, Nle^27, Agm^29]hGHRH(1-29)NH2 [Peptide P-20373]”: the results for the “GH releasing potency relative to JI-38 (=1)” value in experiment [1] (15 min after) and in experiment [1] (30 min after) were 0.23 and 0.88, respectively.

In general, pIC50 refers to the IC50 on a negative log10 scale, so that one unit is a factor of ten. Read a low pIC50 as a high IC50. Consider `CCCC[C@H](NC(=O)[C@@H](NC(=O)[C@H](CC(=O)O)NC(=O)[C@H](CCC(N)=O)NC(=O)[C@H](CC(C)C)NC(=O)[C@H](CC(C)C)NC(=O)[C@H](CCCN)NC(=O)[C@H](CCCNC(=N)N)NC(=O)[C@H](C)NC(=O)[C@H](CO)NC(=O)[C@H](CC(C)C)NC(=O)[C@H](CCC(N)=O)NC(=O)[C@H](CC)NC(=O)[C@H](CC(C)C)NC(=O)[C@@H](NC(=O)[C@H](CCCN)NC(=O)[C@H](CCCNC(=N)N)NC(=O)[C@H](Cc1ccc(O)cc1)NC(=O)[C@H](CO)NC(=O)[C@H](C)N(C)C(=O)[C@@H](NC(=O)[C@H](Cc1ccccc1)NC(=O)[C@@H](NC(=O)[C@H](C)NC(=O)[C@H](CC(=O)O)NC(=O)[C@@H](C)NC(=O)CCc1ccc(O)cc1)[C@@H](C)CC)[C@@H](C)O)C(C)C)[C@@H](C)CC)C(=O)N[C@@H](CC(=O)O)C(=O)NCCCCNC(=N)N` [Peptide P-20357, [Dat^1, D-Ala^2, N—Me-Ala^8, Orn^12, Abu^15, Orn^21, Nle^27, Asp^28, Agm^29]hGHRH (1-29)NH2] (Desaminotyrosyl-[dA]DAIFT[NMeA]SYR[Orn]VL[Abu]QLSAR[Orn]LLQDI[Nle]D-Agmatine), for which the “GH releasing potency relative to JI-38 (=1)” value turned out to be 0.63 in experiment [1] (5 min after), 1.07 in experiment [1] (15 min after) and 1.41 in experiment [1] (30 min after). In addition, the pIC50 in experiment [2] (125I-JV-1-42, human pituitary membranes, Table 7) is 9.07. Moreover, the “Relative affinity” value in experiment [2] came to 5.06.

Take `CCCC[C@H](NC(=O)[C@@H](NC(=O)[C@H](CC(=O)O)NC(=O)[C@H](CCC(N)=O)NC(=O)[C@H](CC(C)C)NC(=O)[C@H](CC(C)C)NC(=O)[C@H](CCCN)NC(=O)[C@H](CCCNC(=N)N)NC(=O)[C@H](C)NC(=O)[C@H](CO)NC(=O)[C@H](CC(C)C)NC(=O)[C@H](CCC(N)=O)NC(=O)[C@H](CC)NC(=O)[C@H](CC(C)C)NC(=O)[C@@H](NC(=O)[C@H](CCCN)NC(=O)[C@H](CCCNC(=N)N)NC(=O)[C@H](Cc1ccc(O)cc1)NC(=O)[C@H](CO)NC(=O)[C@H](CC(N)=O)NC(=O)[C@@H](NC(=O)[C@H](Cc1c(F)c(F)c(F)c(F)c1F)NC(=O)[C@@H](NC(=O)[C@H](C)NC(=O)[C@H](CC(=O)O)NC(=O)[C@@H](C)NC(=O)[C@H](Cc1ccc(O)cc1)NC)[C@@H](C)CC)[C@@H](C)O)C(C)C)[C@@H](C)CC)C(=O)N[C@@H](CC(=O)O)C(=O)NCCCCNC(=N)N` [Peptide P-20359, [N—Me-Tyr^1, D-Ala^2, Fpa5^6, Orn^12, Abu^15, Orn^21, Nle^27, Asp^28, Agm^29]hGHRH (1-29)NH2] (H-[NMeY][dA]DAI[Phe(F5)]TNSYR[Orn]VL[Abu]QLSAR[Orn]LLQDI[Nle]D-Agmatine): the “Relative affinity” value in experiment [2] is reported as 1.43.

The values above are taken from patent publication US10555987B2, “GHRH agonists for the treatment of ischemic disorders” (UNIVERSITY OF MIAMI, priority 2012, dated 2020).
